Patent US7462600B2, “Macrolides” (Pfizer Inc, priority 2004, dated 2008)
In brackets after ≈: the same amount, converted by molar mass.

Legend:
Assay type in all cases: cell-based
[1] = test system: Streptococcus pyogenes 1079; assay: MIC, microtiter broth dilution (NCCLS M100-S14), S. pyogenes 1079 (ermB); conditions: Streptococcus pyogenes 1079
Method in brief: (§1)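 Minimum inhibitory concentration by broth microdilution in trays (NCCLS M100-S14); starting stocks 40 mg/ml, DMSO.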

[2] = test system: Streptococcus pneumoniae 1016; assay: MIC, microtiter broth dilution (NCCLS M100-S14), S. pneumoniae 1016 (susceptible); conditions: Streptococcus pneumoniae 1016
Method in brief: as §1

[3] = test system: Streptococcus pneumoniae 1095; conditions: Streptococcus pneumoniae 1095; microtiter broth dilution
Method in brief: as §1

[4] = test system: Streptococcus pneumoniae 1175; conditions: Streptococcus pneumoniae 1175; microtiter broth dilution
Method in brief: as §1

[5] = test system: Haemophilus influenzae 1218; assay: MIC, microtiter broth dilution (NCCLS M100-S14), H. influenzae 1218 (susceptible); conditions: Haemophilus influenzae 1218
Method in brief: as §1

Structure (SMILES) | MIC S. pyogenes 1079 [1] | MIC S. pneumo. 1016 [2] | MIC S. pneumo. 1095 [3] | MIC S. pneumo. 1175 [4] | MIC H. influenzae 1218 [5]
CCC1OC(=O)C(C)C(=O)C(C)C(OC2OC(C)CC(N(C)C)C2O)C(C)(OC)CC(C)C(=O)C(C)C2N(C3CN(S(=O)(=O)c4cc(Cl)ccc4OC)C3)C(=O)OC12C (stereo not shown) [Example 3.106, 3-descladinosyl-11,12-dideoxy-6-O-methyl-3-oxo-12,11-(oxycarbonyl-(1-(5-chloro-2-methoxybenzene-1-sulfonyl)-azetidin-3-yl)-imino)-erythromycin A] | 0.5 µg/mL (≈ 0.573 µM) | <0.063 µg/mL | <0.063 µg/mL | <0.063 µg/mL | 0.5 µg/mL (≈ 0.573 µM)
CCC1OC(=O)C(C)C(=O)C(C)C(OC2OC(C)CC(N(C)C)C2O)C(C)(OC)CC(C)C(=O)C(C)C2N(C3CN(S(=O)(=O)c4cccc(Cl)c4)C3)C(=O)OC12C (stereo not shown) [Example 3.107, 3-descladinosyl-11,12-dideoxy-6-O-methyl-3-oxo-12,11-(oxycarbonyl-(1-(3-chlorobenzene-1-sulfonyl)-azetidin-3-yl)-imino)-erythromycin A] | 1 µg/mL (≈ 1.19 µM) | <0.063 µg/mL | <0.063 µg/mL | <0.063 µg/mL | 025 µg/mL (≈ 29.7 µM)
CCC1OC(=O)C(C)C(=O)C(C)C(OC2OC(C)CC(N(C)C)C2O)C(C)(OC)CC(C)C(=O)C(C)C2N(C3CN(S(=O)(=O)c4ccc(NC(C)=O)cc4)C3)C(=O)OC12C (stereo not shown) [Example 3.108, 3-descladinosyl-11,12-dideoxy-6-O-methyl-3-oxo-12,11-(oxycarbonyl-(1-(4-acetamidobenzene-1-sulfonyl)-azetidin-3-yl)-imino)-erythromycin A] | 0.25 µg/mL (≈ 0.289 µM) | <0.063 µg/mL | <0.063 µg/mL | 0.5 µg/mL (≈ 0.578 µM) | 1 µg/mL (≈ 1.16 µM)
CCC1OC(=O)C(C)C(=O)C(C)C(OC2OC(C)CC(N(C)C)C2O)C(C)(OC)CC(C)C(=O)C(C)C2N(C3CN(S(=O)(=O)c4ccc(OC)c(OCC#N)c4)C3)C(=O)OC12C (stereo not shown) [Example 3.109, 3-descladinosyl-11,12-dideoxy-6-O-methyl-3-oxo-12,11-(oxycarbonyl-(1-(3-(cyanomethoxy)-4-methoxybenzene-1-sulfonyl)-azetidin-3-yl)-imino)-erythromycin A] | 0.125 µg/mL (≈ 0.14 µM) | <0.063 µg/mL | <0.063 µg/mL | <0.063 µg/mL | <0.063 µg/mL
CCC1OC(=O)C(C)C(=O)C(C)C(OC2OC(C)CC(N(C)C)C2O)C(C)(OC)CC(C)C(=O)C(C)C2N(C3CN(S(=O)(=O)c4cccc(Oc5ccc(F)cc5)c4)C3)C(=O)OC12C (stereo not shown) [Example 3.110, 3-descladinosyl-11,12-dideoxy-6-O-methyl-3-oxo-12,11-(oxycarbonyl-(1-(3-(4-fluorophenoxy)benzene-1-sulfonyl)-azetidin-3-yl)-imino)erythromycin A] | 4 µg/mL (≈ 4.36 µM) | <0.063 µg/mL | <0.063 µg/mL | <0.063 µg/mL | 2 µg/mL (≈ 2.18 µM)
CCC1OC(=O)C(C)C(=O)C(C)C(OC2OC(C)CC(N(C)C)C2O)C(C)(OC)CC(C)C(=O)C(C)C2N(C3CN(S(=O)(=O)c4ccc(C)c5ncccc45)C3)C(=O)OC12C (stereo not shown) [Example 3.111, 3-descladinosyl-11,12-dideoxy-6-O-methyl-3-oxo-12,11-(oxycarbonyl-(1-(8-methylquinoline-5-sulfonyl)-azetidin-3-yl)-imino)erythromycin A] | 1 µg/mL (≈ 1.15 µM) | <0.063 µg/mL | <0.063 µg/mL | <0.063 µg/mL | 0.5 µg/mL (≈ 0.573 µM)
CCC1OC(=O)C(C)C(=O)C(C)C(OC2OC(C)CC(N(C)C)C2O)C(C)(OC)CC(C)C(=O)C(C)C2N(C3CN(S(=O)(=O)c4ccc(OC)c5nccnc45)C3)C(=O)OC12C (stereo not shown) [Example 3.112, 3-descladinosyl-11,12-dideoxy-6-O-methyl-3-oxo-12,11-(oxycarbonyl-(1-(8-methoxyquinoxaline-5-sulfonyl)-azetidin-3-yl)-imino)erythromycin A] | 0.125 µg/mL (≈ 0.14 µM) | <0.063 µg/mL | <0.063 µg/mL | 0.25 µg/mL (≈ 0.281 µM) | 2 µg/mL (≈ 2.25 µM)
CCC1OC(=O)C(C)C(=O)C(C)C(OC2OC(C)CC(N(C)C)C2O)C(C)(OC)CC(C)C(=O)C(C)C2N(C3CN(S(=O)(=O)c4ccc(OC(F)F)c5ncccc45)C3)C(=O)OC12C (stereo not shown) [Example 3.113, 3-descladinosyl-11,12-dideoxy-6-O-methyl-3-oxo-12,11-(oxycarbonyl-(1-(8-(difluoromethoxy)quinoline-5-sulfonyl)-azetidin-3-yl)-imino)-erythromycin A] | 0.5 µg/mL (≈ 0.541 µM) | <0.063 µg/mL | <0.063 µg/mL | <0.063 µg/mL | 1 µg/mL (≈ 1.08 µM)
CCC1OC(=O)C(C)C(=O)C(C)C(OC2OC(C)CC(N(C)C)C2O)C(C)(OC)CC(C)C(=O)C(C)C2N(C3CN(S(=O)(=O)c4ccc(C)c5nccnc45)C3)C(=O)OC12C (stereo not shown) [Example 3.114, 3-descladinosyl-11,12-dideoxy-6-O-methyl-3-oxo-12,11-(oxycarbonyl-(1-(8-methylquinoxaline-5-sulfonyl)-azetidin-3-yl)-imino)-erythromycin A] | 1 µg/mL (≈ 1.14 µM) | <0.063 µg/mL | 0.125 µg/mL (≈ 0.143 µM) | <0.063 µg/mL | 0.25 µg/mL (≈ 0.286 µM)
CCC1OC(=O)C(C)C(=O)C(C)C(OC2OC(C)CC(N(C)C)C2O)C(C)(OC)CC(C)C(=O)C(C)C2N(C3CN(S(=O)(=O)c4ccc(N5CCOC5=O)cc4)C3)C(=O)OC12C (stereo not shown) [Example 3.115, 3-descladinosyl-11,12-dideoxy-6-O-methyl-3-oxo-12,11-(oxycarbonyl-(1-(4-(2-oxooxazolidin-3-yl)benzene-1-sulfonyl)-azetidin-3-yl)-imino)-erythromycin A] | 0.25 µg/mL (≈ 0.28 µM) | <0.063 µg/mL | <0.063 µg/mL | 0.125 µg/mL (≈ 0.14 µM) | 1 µg/mL (≈ 1.12 µM)
CCC1OC(=O)C(C)C(=O)C(C)C(OC2OC(C)CC(N(C)C)C2O)C(C)(OC)CC(C)C(=O)C(C)C2N(C3CN(S(=O)(=O)c4ccc5c(c4)N(C)S(=O)(=O)N5C)C3)C(=O)OC12C (stereo not shown) [Example 3.116, 3-descladinosyl-11,12-dideoxy-6-O-methyl-3-oxo-12,11-(oxycarbonyl-(1-(1,3-dimethyl-2,1,3-benzothiadiazole-2,2-dioxide-0-5-sulfonyl)-azetidin-3-yl)-imino)-erythromycin A] | 0.5 µg/mL (≈ 0.539 µM) | <0.063 µg/mL | <0.063 µg/mL | <0.063 µg/mL | 0.5 µg/mL (≈ 0.539 µM)
